Reference: US9475809B2, “Substituted oxopyridine derivatives and use thereof as factor xia/plasma” (BAYER PHARMA AKTIENGESELLSCHAFT, priority 2013, dated 2016)

Molecular target: human factor XIa (Homo sapiens (Human), UniProt P03951)
Assay: Measurement of FXIa inhibition (fluorogenic peptide substrate)
Format: biochemical
Details: factor XIa from Kordia 0.45 nM; substrate Boc-Glu(OBzl)-Ala-Arg-AMC; 30 min at 22° C.
Description: a.1) Measurement of FXIa Inhibition
The factor XIa inhibition of the inventive substances is determined using a biochemical test system which utilizes the reaction of a peptidic factor XIa substrate to determine the enzymatic activity of human factor XIa. Here, factor XIa cleaves from the peptic factor XIa substrate the C-terminal aminomethylcoumarin (AMC), the fluorescence of which is measured. The determinations are carried out in microtitre plates.
In each case 1 μl of the diluted substance solutions is placed into the wells of white microtitre plates from Greiner (384 wells). […] After 15 min of incubation, the enzyme reaction is started by addition of 20 μl of the factor XIa substrate Boc-Glu(OBzl)-Ala-Arg-AMC dissolved in assay buffer (10 μM in assay buffer) from Bachem, the mixture is incubated at room temperature (22° C.) for 30 min and fluorescence is then measured (excitation: 360 nm, emission: 460 nm). The measured emissions of the test batches with test substance are compared to those of control batches without test substance (only dimethyl sulphoxide instead of test substance in dimethyl sulphoxide), and IC50 values are calculated from the concentration/activity relationships.

Chain of human factor XIa (P03951 388-625): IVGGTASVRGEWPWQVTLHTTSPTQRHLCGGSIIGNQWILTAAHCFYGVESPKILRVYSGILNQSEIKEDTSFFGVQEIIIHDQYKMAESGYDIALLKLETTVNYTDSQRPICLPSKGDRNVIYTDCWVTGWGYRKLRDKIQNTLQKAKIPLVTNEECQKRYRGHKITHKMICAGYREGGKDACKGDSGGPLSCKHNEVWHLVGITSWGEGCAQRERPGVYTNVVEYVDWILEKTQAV
Chain of human factor XIa (P03951 19-387 partner): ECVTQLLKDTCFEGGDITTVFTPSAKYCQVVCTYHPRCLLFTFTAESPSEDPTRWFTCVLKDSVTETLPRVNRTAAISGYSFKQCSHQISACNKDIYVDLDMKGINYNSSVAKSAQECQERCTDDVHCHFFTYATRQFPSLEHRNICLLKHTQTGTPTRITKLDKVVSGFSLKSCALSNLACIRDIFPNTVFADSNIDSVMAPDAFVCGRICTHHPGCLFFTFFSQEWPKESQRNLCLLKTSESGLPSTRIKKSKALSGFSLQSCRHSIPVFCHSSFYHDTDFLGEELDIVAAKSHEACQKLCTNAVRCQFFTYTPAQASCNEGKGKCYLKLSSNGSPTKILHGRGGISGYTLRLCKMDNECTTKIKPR

Row | SMILES | IC50
1 | CN1Cc2c(c(-c3cc(Cl)ccc3Cl)cc(=O)n2CC(=O)Nc2ccc(-c3nnn[nH]3)cc2)C1=O [Example 2, 2-[4-(2,5-Dichlorophenyl)-6-methyl-2,5-dioxo-2,5,6,7-tetrahydro-1H-pyrrolo[3,4-b]pyridin-1-yl]-N-[4-(1H-tetrazol-5-yl)phenyl]acetamide] | 0.34 µM
2 | O=C(Cn1c2c(c(-c3cc(Cl)ccc3Cl)cc1=O)C(=O)CC2)Nc1ccc(-c2nnn[nH]2)cc1 [Example 3, 2-[4-(2,5-Dichlorophenyl)-2,5-dioxo-2,5,6,7-tetrahydro-1H-cyclopenta[b]pyridin-1-yl]-N-[4-(1H-tetrazol-5-yl)phenyl]acetamide] | 0.23 µM
3 | O=C(Cn1c2c(c(-c3cc(Cl)ccc3Cl)cc1=O)C(=O)CC2)Nc1ccc(C(=O)O)cc1 [Example 4, 4-({[4-(2,5-Dichlorophenyl)-2,5-dioxo-2,5,6,7-tetrahydro-1H-cyclopenta[b]pyridin-1-yl]acetyl}amino)benzoic acid] | 0.42 µM
4 | O=C(Cn1c2c(c(-c3cc(Cl)ccc3Cl)cc1=O)C(=O)CC2)Nc1ccc(-c2nc(C(F)(F)F)n[nH]2)cc1 [Example 6, 2-[4-(2,5-Dichlorophenyl)-2,5-dioxo-2,5,6,7-tetrahydro-1H-cyclopenta[b]pyridin-1-yl]-N-{4-[3-(trifluoromethyl)-1H-1,2,4-triazol-5-yl]phenyl}acetamide] | 0.55 µM
5 | O=C(Cn1c2c(c(-c3cc(Cl)ccc3Cl)cc1=O)C(=O)CC2)Nc1ccc(-c2cc(=O)[nH][nH]2)cc1 [Example 7, 2-[4-(2,5-Dichlorophenyl)-2,5-dioxo-2,5,6,7-tetrahydro-1H-cyclopenta[b]pyridin-1-yl]-N-[4-(5-oxo-2,5-dihydro-1H-pyrazol-3-yl)phenyl]acetamide] | 0.13 µM
6 | O=C(Cn1c2c(c(-c3cc(Cl)ccc3Cl)cc1=O)C(=O)CC2)Nc1ccc(-c2cnc[nH]2)cc1 [Example 8, 2-[4-(2,5-Dichlorophenyl)-2,5-dioxo-2,5,6,7-tetrahydro-1H-cyclopenta[b]pyridin-1-yl]-N-[4-(1H-imidazol-5-yl)phenyl]acetamide] | 0.47 µM
7 | O=C(Cn1c2c(c(-c3cc(Cl)ccc3Br)cc1=O)C(=O)CC2)Nc1ccc(-c2nnn[nH]2)cc1 [Example 9, 2-[4-(2-Bromo-5-chlorophenyl)-2,5-dioxo-2,5,6,7-tetrahydro-1H-cyclopenta[b]pyridin-1-yl]-N-[4-(1H-tetrazol-5-yl)phenyl]acetamide] | 0.17 µM
8 | O=C(Cn1c2c(c(-c3cc(Cl)ccc3Br)cc1=O)C(=O)CC2)Nc1ccc(-c2noc(=O)[nH]2)cc1 [Example 10, 2-[4-(2-Bromo-5-chlorophenyl)-2,5-dioxo-2,5,6,7-tetrahydro-1H-cyclopenta[b]pyridin-1-yl]-N-[4-(5-oxo-4,5-dihydro-1,2,4-oxadiazol-3-yl)phenyl]acetamide] | 0.19 µM
9 | O=C(Cn1c2c(c(-c3cc(Cl)ccc3C(F)(F)F)cc1=O)C(=O)CC2)Nc1ccc(-c2cc(=O)[nH][nH]2)cc1 [Example 11, 2-{4-[5-Chloro-2-(trifluoromethyl)phenyl]-2,5-dioxo-2,5,6,7-tetrahydro-1H-cyclopenta[b]pyridin-1-yl}-N -[4-(5-oxo-2,5-dihydro-1H-pyrazol-3-yl)phenyl]acetamide] | 0.75 µM
10 | N#Cc1ccc(Cl)cc1-c1cc(=O)n(CC(=O)Nc2ccc(-c3noc(=O)[nH]3)cc2)c2c1C(=O)CC2 [Example 13, 2-[4-(5-Chloro-2-cyanophenyl)-2,5-dioxo-2,5,6,7-tetrahydro-1H-cyclopenta[b]pyridin-1-yl]-N-[4-(5-oxo-4,5-dihydro-1,2,4-oxadiazol-3-yl)phenyl]acetamide] | 0.034 µM
11 | N#Cc1ccc(Cl)cc1-c1cc(=O)n(CC(=O)Nc2ccc(-c3cc(=O)[nH][nH]3)cc2)c2c1C(=O)CC2 [Example 14, 2-[4-(5-Chloro-2-cyanophenyl)-2,5-dioxo-2,5,6,7-tetrahydro-1H-cyclopenta[b]pyridin-1-yl]-N-[4-(5-oxo-2,5-dihydro-1H-pyrazol-3-yl)phenyl]acetamide] | 0.14 µM
12 | N#Cc1ccc(Cl)cc1-c1cc(=O)n(CC(=O)Nc2ccc(-c3noc(=O)[nH]3)cc2)c2c1C(=O)CCC2 [Example 16, 2-[4-(5-Chloro-2-cyanophenyl)-2,5-dioxo-5,6,7,8-tetrahydroquinolin-1(2H)-yl]-N-[4-(5-oxo-4,5-dihydro-1,2,4-oxadiazol-3-yl)phenyl]acetamide] | 0.077 µM
